Measurements as given in patent publication US20050009840A1 (SUGEN, INC., priority 2003, published 2005).

These molecules were tested against T1, HGFR (Homo sapiens, UniProt P08581) (assay: HGFR continuous-coupled spectrophotometric assay). Conditions: at 1 pM; Table 7, library procedure 42; read-out: % Inhibition (percent c-MET inhibition).
T1 construct: purchased Upstate 14-526
Format: biochemical

T1 sequence (P08581 974-1390 limits assumed): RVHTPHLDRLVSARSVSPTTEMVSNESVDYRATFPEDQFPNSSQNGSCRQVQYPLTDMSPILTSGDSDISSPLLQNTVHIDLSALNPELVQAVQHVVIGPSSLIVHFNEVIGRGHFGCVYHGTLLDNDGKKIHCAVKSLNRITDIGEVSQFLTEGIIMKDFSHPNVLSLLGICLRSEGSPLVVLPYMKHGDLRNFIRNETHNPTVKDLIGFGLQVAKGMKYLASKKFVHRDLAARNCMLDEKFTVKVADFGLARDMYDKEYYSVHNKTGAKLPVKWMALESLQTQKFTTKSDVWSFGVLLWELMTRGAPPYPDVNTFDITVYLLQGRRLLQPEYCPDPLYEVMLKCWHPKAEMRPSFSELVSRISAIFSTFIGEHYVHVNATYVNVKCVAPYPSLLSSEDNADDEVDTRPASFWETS

inhibition at 1 pM [%] | Structure (SMILES)
19 | Nc1ncc(-c2ccc(C(=O)N3CCC(N4CCCC4)CC3)cc2)cc1OCc1ccc(F)c(F)c1
32 | CC(C)c1ccc(COc2cc(-c3ccc(C(=O)N4CCC(N5CCCC5)CC4)cc3)cnc2N)cc1
22 | Nc1ncc(-c2ccc(C(=O)N3CCC(N4CCCC4)CC3)cc2)cc1OCc1ccccc1-c1ccccc1
20 | Nc1ncc(-c2ccc(C(=O)N3CCC(N4CCCC4)CC3)cc2)cc1OCc1ccc(OC(F)(F)F)cc1
14 | Nc1ncc(-c2ccc(C(=O)N3CCC(N4CCCC4)CC3)cc2)cc1OCc1cc(F)cc(F)c1
24 | Nc1ncc(-c2ccc(C(=O)N3CCC(N4CCCC4)CC3)cc2)cc1OCc1cccc(F)c1F
10 | COc1ccc(-c2nc(COc3cc(-c4ccc(C(=O)N5CCC(N6CCCC6)CC5)cc4)cnc3N)no2)cc1
10 | COc1cc(COc2cc(-c3ccc(C(=O)N4CCC(N5CCCC5)CC4)cc3)cnc2N)cc(OC)c1OC
19 | Nc1ncc(-c2ccc(C(=O)N3CCC(N4CCCC4)CC3)cc2)cc1OCc1cc(Cl)cc(Cl)c1
34 | Nc1ncc(-c2ccc(C(=O)N3CCC(N4CCCC4)CC3)cc2)cc1OCc1cccc(Oc2ccccc2)c1
40 | Nc1ncc(-c2ccc(C(=O)N3CCC(N4CCCC4)CC3)cc2)cc1OCc1cccc(Cl)c1Cl
26 | Cc1ccc(COc2cc(-c3ccc(C(=O)N4CCC(N5CCCC5)CC4)cc3)cnc2N)cc1Cl
26 | Nc1ncc(-c2ccc(C(=O)N3CCC(N4CCCC4)CC3)cc2)cc1OCc1cc(Cl)ccc1Cl
9 | Nc1ncc(-c2ccc(C(=O)N3CCC(N4CCCC4)CC3)cc2)cc1OCc1nc(CS(=O)(=O)c2ccccn2)no1
14 | Nc1ncc(-c2ccc(C(=O)N3CCC(N4CCCC4)CC3)cc2)cc1OCc1cc(-c2c(Cl)cccc2Cl)no1
9 | CC(=O)N(c1ccc(C)cc1)c1nc(COc2cc(-c3ccc(C(=O)N4CCC(N5CCCC5)CC4)cc3)cnc2N)cs1
10 | CC(Oc1cc(-c2ccc(C(=O)N3CCC(N4CCCC4)CC3)cc2)cnc1N)c1ccccc1 (centres unmarked)
13 | Nc1ncc(-c2ccc(C(=O)N3CCC(N4CCCC4)CC3)cc2)cc1OCc1cccc(OC(F)(F)F)c1
8 | Cc1cc(COc2cc(-c3ccc(C(=O)N4CCC(N5CCCC5)CC4)cc3)cnc2N)nc(-c2ccc(C(F)(F)F)cn2)n1
24 | Nc1ncc(-c2ccc(C(=O)N3CCC(N4CCCC4)CC3)cc2)cc1OCc1cc(F)ccc1Br
14 | Cc1cc(C)cc(COc2cc(-c3ccc(C(=O)N4CCC(N5CCCC5)CC4)cc3)cnc2N)c1
15 | COc1cccc(COc2cc(-c3ccc(C(=O)N4CCC(N5CCCC5)CC4)cc3)cnc2N)c1
15 | Nc1ncc(-c2ccc(C(=O)N3CCC(N4CCCC4)CC3)cc2)cc1OCc1ccc(Cl)cc1
28 | Nc1ncc(-c2ccc(C(=O)N3CCC(N4CCCC4)CC3)cc2)cc1OCc1cccc(Cl)c1F
26 | Nc1ncc(-c2ccc(C(=O)N3CCC(N4CCCC4)CC3)cc2)cc1OCc1ccc(Cl)c(Cl)c1
12 | Nc1ncc(-c2ccc(C(=O)N3CCC(N4CCCC4)CC3)cc2)cc1OCc1cc(F)c(F)cc1F

inhibition at 1 pM [%] | Structure (SMILES)
15 | Nc1ncc(-c2ccc(C(=O)N3CCC(N4CCCC4)CC3)cc2)cc1OCc1ccc(F)c(F)c1F
12 | Nc1ncc(-c2ccc(C(=O)N3CCC(N4CCCC4)CC3)cc2)cc1OCc1ccc(C(F)(F)F)cc1C(F)(F)F
30 | Nc1ncc(-c2ccc(C(=O)N3CCC(N4CCCC4)CC3)cc2)cc1OCc1c(F)ccc(F)c1F
10 | Nc1ncc(-c2ccc(C(=O)N3CCC(N4CCCC4)CC3)cc2)cc1OCc1ccc(C(F)(F)F)cc1
28 | Cc1cccc(COc2cc(-c3ccc(C(=O)N4CCC(N5CCCC5)CC4)cc3)cnc2N)c1F
21 | CC(Oc1cc(-c2ccc(C(=O)N3CCC(N4CCCC4)CC3)cc2)cnc1N)c1ccccc1C(F)(F)F (centres unmarked)
9 | CC(=O)Nc1nc(COc2cc(-c3ccc(C(=O)N4CCC(N5CCCC5)CC4)cc3)cnc2N)cs1
11 | Nc1ncc(-c2ccc(C(=O)N3CCC(N4CCCC4)CC3)cc2)cc1OCc1ccccc1CS(=O)(=O)c1ccccc1
4 | Nc1ncc(-c2ccc(C(=O)N3CCC(N4CCCC4)CC3)cc2)cc1OC1OC(=O)c2ccccc21 (centres unmarked)
41 | Nc1ncc(-c2ccc(C(=O)N3CCC(N4CCCC4)CC3)cn2)cc1OCc1ccc(-c2csnn2)cc1
21 | Nc1ncc(-c2ccc(C(=O)N3CCN(C4CCCC4)CC3)cc2)cc1OCc1cc(F)cc2c1OCOC2
14 | Nc1ncc(-c2ccc(C(=O)N3CCC(N4CCCC4)CC3)cc2)cc1OCc1cc(C(F)(F)F)cc(C(F)(F)F)c1
13 | Nc1ncc(-c2ccc(C(=O)N3CCC(N4CCCC4)CC3)cc2)cc1OCc1ccc(F)c(C(F)(F)F)c1
12 | Nc1ncc(-c2ccc(C(=O)N3CCC(N4CCCC4)CC3)cc2)cc1OCc1cc(F)cc(C(F)(F)F)c1
31 | Nc1ncc(-c2ccc(C(=O)N3CCC(N4CCCC4)CC3)cc2)cc1OCc1c(F)cccc1C(F)(F)F
19 | Nc1ncc(-c2ccc(C(=O)N3CCC(N4CCCC4)CC3)cc2)cc1OCc1cc(F)c(F)c(F)c1
27 | Nc1ncc(-c2ccc(C(=O)N3CCC(N4CCCC4)CC3)cc2)cc1OCc1ccccc1OC(F)F
25 | Nc1ncc(-c2ccc(C(=O)N3CCC(N4CCCC4)CC3)cc2)cc1OCc1ccc(C(F)(F)F)c(F)c1
31 | Nc1ncc(-c2ccc(C(=O)N3CCC(N4CCCC4)CC3)cc2)cc1OCc1ccc(Br)cc1F
45 | Nc1ncc(-c2ccc(C(=O)N3CCC(N4CCCC4)CC3)cc2)cc1OCc1cc(Br)cc(Br)c1
11 | CS(=O)(=O)c1ccc(COc2cc(-c3ccc(C(=O)N4CCC(N5CCCC5)CC4)cc3)cnc2N)cc1
77 | N#Cc1ccccc1-c1ccc(COc2cc(-c3ccc(C(=O)N4CCC(N5CCCC5)CC4)cc3)cnc2N)cc1
11 | Nc1ncc(-c2ccc(C(=O)N3CCC(N4CCCC4)CC3)cc2)cc1OCc1ccc(C(=O)NCCN2CCOCC2)cc1
9 | CN(C)CCNC(=O)c1ccc(COc2cc(-c3ccc(C(=O)N4CCC(N5CCCC5)CC4)cc3)cnc2N)cc1
12 | Nc1ncc(-c2ccc(C(=O)N3CCC(N4CCCC4)CC3)cc2)cc1OCc1ccc(C(=O)N2CCNC(c3ccccc3)C2)cc1 (centres unmarked)
7 | Nc1ncc(-c2ccc(C(=O)N3CCC(N4CCCC4)CC3)cc2)cc1OCc1ccc(C(=O)NCc2ccccn2)cc1

inhibition at 1 pM [%] | Structure (SMILES)
10 | Nc1ncc(-c2ccc(C(=O)N3CCC(N4CCCC4)CC3)cc2)cc1OCc1cccc(C(=O)Nc2cccnc2)c1
14 | Nc1ncc(-c2ccc(C(=O)N3CCC(N4CCCC4)CC3)cc2)cc1OCc1cccc(C(=O)NCc2cccnc2)c1
10 | Nc1ncc(-c2ccc(C(=O)N3CCC(N4CCCC4)CC3)cc2)cc1OCc1cccc(C(=O)NCc2ccncc2)c1
12 | Nc1ncc(-c2ccc(C(=O)N3CCC(N4CCCC4)CC3)cc2)cc1OCc1cccc(C(=O)NCCc2ccccn2)c1
13 | Nc1ncc(-c2ccc(C(=O)N3CCC(N4CCCC4)CC3)cc2)cc1OCc1cccc(C(=O)NC2CCN(Cc3ccccc3)C2)c1 (centres unmarked)
11 | Nc1ncc(-c2ccc(C(=O)N3CCC(N4CCCC4)CC3)cc2)cc1OCc1ccc(C(=O)NCCc2ccccn2)cc1
10 | Nc1ncc(-c2ccc(C(=O)N3CCC(N4CCCC4)CC3)cc2)cc1OCc1ccc(C(=O)NCCN2CCCC2)cc1
11 | Nc1ncc(-c2ccc(C(=O)N3CCC(N4CCCC4)CC3)cc2)cc1OCc1ccc(C(=O)NCCCN2CCCC2=O)cc1
13 | Nc1ncc(-c2ccc(C(=O)N3CCC(N4CCCC4)CC3)cc2)cc1OCc1cccc(C(=O)NC2CCN(Cc3ccccc3)CC2)c1
11 | Nc1ncc(-c2ccc(C(=O)N3CCC(N4CCCC4)CC3)cc2)cc1OCc1ccc(C(=O)NC2CCN(Cc3ccccc3)CC2)cc1
10 | CCN1CCCC1CNC(=O)c1cccc(COc2cc(-c3ccc(C(=O)N4CCC(N5CCCC5)CC4)cc3)cnc2N)c1 (centres unmarked)
18 | CCN1CCCC1CNC(=O)c1ccc(COc2cc(-c3ccc(C(=O)N4CCC(N5CCCC5)CC4)cc3)cnc2N)cc1 (centres unmarked)
23 | CN(C)c1ccc(NC(=O)c2cccc(COc3cc(-c4ccc(C(=O)N5CCC(N6CCCC6)CC5)cc4)cnc3N)c2)cc1
47 | CCN(CC)c1ccc(NC(=O)c2ccc(COc3cc(-c4ccc(C(=O)N5CCC(N6CCCC6)CC5)cc4)cnc3N)cc2)cc1
15 | Nc1ncc(-c2ccc(C(=O)N3CCC(N4CCCC4)CC3)cc2)cc1OCc1ccc(C(=O)NCc2cccnc2)cc1
24 | Nc1ncc(-c2ccc(C(=O)N3CCC(N4CCCC4)CC3)cc2)cc1OCc1ccc(C(=O)NC2CCN(Cc3ccccc3)C2)cc1 (centres unmarked)
32 | Nc1ncc(-c2ccc(C(=O)N3CCC(N4CCCC4)CC3)cc2)cc1OCc1cccc(C(=O)Nc2ccc(N3CCCCC3)cc2)c1
19 | CC(C)Oc1cc(C(F)(F)F)nc2ccc(COc3cc(-c4ccc(C(=O)N5CCC(N6CCCC6)CC5)cc4)cnc3N)cc12
21 | Nc1ncc(-c2ccc(C(=O)N3CCC(N4CCCC4)CC3)cc2)cc1OCc1csc(-c2ccc(C(F)(F)F)cc2)n1
59 | Nc1ncc(-c2ccc(C(=O)N3CCC(N4CCCC4)CC3)cc2)cc1OCc1ccc2ccccc2c1Br
20 | CN(C)CCNC(=O)c1cccc(COc2cc(-c3ccc(C(=O)N4CCC(N5CCCC5)CC4)cc3)cnc2N)c1
26 | Nc1ncc(-c2ccc(C(=O)N3CCC(N4CCCC4)CC3)cc2)cc1OCc1cc(C(F)(F)F)ccc1Cl
26 | Nc1ncc(-c2ccc(C(=O)N3CCC(N4CCCC4)CC3)cc2)cc1OCc1cc(F)ccc1C(F)(F)F
21 | Nc1ncc(-c2ccc(C(=O)N3CCC(N4CCCC4)CC3)cc2)cc1OCc1ccccc1OC(F)(F)F
16 | CCOC(=O)C1CCN(C(=O)c2ccc(COc3cc(-c4ccc(C(=O)N5CCC(N6CCCC6)CC5)cc4)cnc3N)cc2)CC1
